[ ]: non-standard residue; d: D form.
Tested on: M21-L melanoma tumor
Assay: In vivo chimeric mouse:human assay
Parameters: species or system SCID mouse
Conditions: intravenous, FIG. 18
Experimental: An in vivo chimeric mouse:human model was generated by replacing a portion of skin from a SCID mouse with human neonatal foreskin (FIG. 4). After the skin graft was established, the human foreskin was inoculated with carcinoma cells. After a measurable tumor was established, either an αvβ3 antagonist or PBS was injected into the mouse tail vein. Following a 2-3 week period, the tumor was excised and analyzed by weight and histology.
The in vivo chimeric mouse:human model is prepared essentially as described in Yan, et al., J. Clin. Invest., 91:986-996 (1993). Briefly, a 2 cm^2 square area of skin was surgically removed from a SCID mouse (6-8 weeks of age) and replaced with a human foreskin. The mouse was anesthetized and the hair removed from a 5 cm^2 area on each side of the lateral abdominal region by shaving. Two circular graft beds of 2 cm^2 were prepared by removing the full thickness of skin down to the fascia. Full thickness human skin grafts of the same size derived from human neonatal foreskin were placed onto the wound beds and sutured into place. […]
In a procedure similar to that described above for monoclonal antibodies, peptide antagonists of αvβ3 were injected intravenously into the tail vein of SCID mice having measurable M21-L tumors. […] The mean volume and weight of resected tumors following treatment were determined with the results respectively shown in FIGS. 19A and 19B.

Substance: cyclo (RADfV) (cyclo(RAD[dF]V); SMILES CC(C)[C@@H]1NC(=O)[C@@H](Cc2ccccc2)NC(=O)[C@H](CC(=O)O)NC(=O)[C@H](C)NC(=O)[C@H](CCCNC(=N)N)NC1=O) [Peptide 69601, reference compound]
- tumor volume: approximately 360 mm^3
